Several values for one entry are separate records, joined by “and”; a condition that tells them apart may be missing. Equal values may be shown once. Toxic doses and inconclusive results are not listed. Cut-off read from the data, not from the text of the source: active = T/C of 150% or more; inactive = T/C below 125%.
Test system: L1210 leukemia ip in BDF1 mice, survival T/C
Assay: NCI In Vivo Anticancer Drug Screen. Data for tumor model L1210 Leukemia (intraperitoneal) in B6D2F1 (BDF1) mice
Conditions: endpoint: mean survival time, higher = longer survival
How it was run: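 Mice bearing the transplanted tumor received compound or vehicle. Survival of the treated group was divided by that of the vehicle-treated control group to give the ratio.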

[1] = dose: 100.0 mg/kg/injection, schedule: Q01DX001 (ip), vehicle: carboxymethylcellulose (CMC)
[2] = dose: 100.0 mg/kg/injection, schedule: Q04DX003 (ip), vehicle: carboxymethylcellulose (CMC)
[3] = dose: 100.0 mg/kg/injection, schedule: Q04DX003 (ip), vehicle: saline with Tween-80
[4] = dose: 200.0 mg/kg/injection, schedule: Q04DX003 (ip), vehicle: saline with Tween-80
[5] = dose: 400.0 mg/kg/injection, schedule: Q04DX003 (ip), vehicle: saline with Tween-80
[6] = dose: 100.0 mg/kg/injection, schedule: Q04DX003 (ip), vehicle: saline
[7] = dose: 200.0 mg/kg/injection, schedule: Q04DX003 (ip), vehicle: saline
[8] = dose: 100.0 mg/kg/injection, schedule: Q01DX009 (ip), vehicle: Klucel (hydroxypropylcellulose) (HPC)
[9] = dose: 200.0 mg/kg/injection, schedule: Q01DX009 (ip), vehicle: Klucel (hydroxypropylcellulose) (HPC)

Measured: T/C

Cc1ccccc1SC(=O)Nc1cc([N+](=O)[O-])ccc1Cl
inactive: [1] 94 % of control and 90 % of control | dose: 100.0 mg/kg/injection, schedule: Q01DX009 (ip), vehicle: carboxymethylcellulose (CMC) 96 % of control | dose: 100.0 mg/kg/injection, schedule: Q04DX002 (ip), vehicle: carboxymethylcellulose (CMC) 97 % of control and 99 % of control | [2] 89 % of control | dose: 200.0 mg/kg/injection, schedule: Q01DX001 (ip), vehicle: carboxymethylcellulose (CMC) 94 % of control and 88 % of control | dose: 200.0 mg/kg/injection, schedule: Q01DX009 (ip), vehicle: carboxymethylcellulose (CMC) 98 % of control | dose: 200.0 mg/kg/injection, schedule: Q04DX002 (ip), vehicle: carboxymethylcellulose (CMC) 94 % of control and 101 % of control | dose: 200.0 mg/kg/injection, schedule: Q04DX003 (ip), vehicle: carboxymethylcellulose (CMC) 96 % of control and 91 % of control | dose: 400.0 mg/kg/injection, schedule: Q01DX001 (ip), vehicle: carboxymethylcellulose (CMC) 97 % of control and 90 % of control | dose: 400.0 mg/kg/injection, schedule: Q01DX009 (ip), vehicle: carboxymethylcellulose (CMC) 94 % of control | dose: 400.0 mg/kg/injection, schedule: Q04DX002 (ip), vehicle: carboxymethylcellulose (CMC) 95 % of control and 101 % of control | dose: 400.0 mg/kg/injection, schedule: Q04DX003 (ip), vehicle: carboxymethylcellulose (CMC) 96 % of control and 92 % of control

CCCCCCCCCOCC(O)COc1ccccc1[N+](=O)[O-] (stereo not given)
inactive: dose: 100.0 mg/kg/injection, schedule: Q04DX003 (ip), vehicle: saline sonified 113 % of control | dose: 200.0 mg/kg/injection, schedule: Q04DX003 (ip), vehicle: saline sonified 95 % of control | dose: 400.0 mg/kg/injection, schedule: Q04DX003 (ip), vehicle: saline sonified 98 % of control

O=C(O)CCC(NC(=O)OCc1ccccc1)C(=O)NC(Cc1ccccc1)C(=O)O (stereo not given)
inactive: [3] 102 % of control | [4] 101 % of control | [5] 101 % of control

CCCC(NC(=O)CCl)C(=O)O (stereo not given)
inactive: [6] 96 % of control | [7] 101 % of control

COc1ccc2nc3cc(Cl)ccc3c(Nc3ccc(O)cc3)c2c1
inactive: dose: 100.0 mg/kg/injection, schedule: Q01DX009 (ip), vehicle: saline with Tween-80 91 % of control | dose: 200.0 mg/kg/injection, schedule: Q01DX009 (ip), vehicle: saline with Tween-80 86 % of control

CNC(=O)Nc1ccccc1[N+](=O)[O-]
inactive: dose: 100.0 mg/kg/injection, schedule: Q04DX002 (ip), vehicle: Klucel (hydroxypropylcellulose) (HPC) 108 % of control | dose: 200.0 mg/kg/injection, schedule: Q04DX002 (ip), vehicle: Klucel (hydroxypropylcellulose) (HPC) 97 % of control

Cc1cc(=O)[nH]cn1
inactive: [6] 100 % of control | [7] 112 % of control | dose: 400.0 mg/kg/injection, schedule: Q04DX003 (ip), vehicle: saline 94 % of control

ClC(Cl)=C(Cl)C(Cl)=C(Cl)Cl
inactive: dose: 3.13 mg/kg/injection, schedule: Q04DX003 (ip), vehicle: Klucel (hydroxypropylcellulose) (HPC) 98 % of control | dose: 6.25 mg/kg/injection, schedule: Q04DX003 (ip), vehicle: Klucel (hydroxypropylcellulose) (HPC) 100 % of control | dose: 12.5 mg/kg/injection, schedule: Q04DX003 (ip), vehicle: Klucel (hydroxypropylcellulose) (HPC) 98 % of control | [2] 101 % of control

O=C(Nc1cccc(CO)c1)c1ccc(S(=O)(=O)F)cc1
inactive: dose: 100.0 mg/kg/injection, schedule: Q01DX001 (ip), vehicle: Klucel (hydroxypropylcellulose) (HPC) 99 % of control | dose: 200.0 mg/kg/injection, schedule: Q01DX001 (ip), vehicle: Klucel (hydroxypropylcellulose) (HPC) 89 % of control | dose: 400.0 mg/kg/injection, schedule: Q01DX001 (ip), vehicle: Klucel (hydroxypropylcellulose) (HPC) 94 % of control

COC(=O)c1c([N+](=O)[O-])ncn1C1OC(COC(C)=O)C(OC(C)=O)C1OC(C)=O (stereo not given)
inactive: dose: 100.0 mg/kg/injection, schedule: Q01DX001 (ip), vehicle: saline 102 % of control | dose: 200.0 mg/kg/injection, schedule: Q01DX001 (ip), vehicle: saline 103 % of control | dose: 400.0 mg/kg/injection, schedule: Q01DX001 (ip), vehicle: saline 94 % of control

CCSC1C(OC(C)=O)C(C(COC(C)=O)OC(C)=O)OC1n1cc(C)c(=O)[nH]c1=O (stereo not given)
inactive: dose: 100.0 mg/kg/injection, schedule: Q01DX005 (ip), vehicle: saline 98 % of control | dose: 200.0 mg/kg/injection, schedule: Q01DX005 (ip), vehicle: saline 100 % of control

CCCCCCC(=O)/C=C/c1ccc(Cl)cc1
inactive: dose: 100.0 mg/kg/injection, schedule: Q01DX009 (ip), vehicle: acetone 93 % of control | [3] 96 % of control | dose: 200.0 mg/kg/injection, schedule: Q01DX009 (ip), vehicle: acetone 90 % of control | [4] 98 % of control | dose: 400.0 mg/kg/injection, schedule: Q01DX009 (ip), vehicle: acetone 92 % of control | [5] 93 % of control

O=C(Nc1ccc(F)cc1)Nc1ccc(Cl)cc1
inactive: [3] 86 % of control | [4] 86 % of control | [5] 87 % of control

C1CCC2OCOCC2C1 (stereo not given)
inactive: dose: 100.0 mg/kg/injection, schedule: Q04DX002 (ip), vehicle: saline with Tween-80 93 % of control | dose: 200.0 mg/kg/injection, schedule: Q04DX002 (ip), vehicle: saline with Tween-80 90 % of control | dose: 400.0 mg/kg/injection, schedule: Q04DX002 (ip), vehicle: saline with Tween-80 93 % of control

CC(=O)NC(CSC(=S)N(C)C)C(=O)O (stereo not given)
inactive: dose: 50.0 mg/kg/injection, schedule: Q01DX009 (ip), vehicle: saline 97 % of control | dose: 100.0 mg/kg/injection, schedule: Q01DX009 (ip), vehicle: saline 93 % of control | dose: 200.0 mg/kg/injection, schedule: Q01DX009 (ip), vehicle: saline 101 % of control

COc1ccc(NC(=O)c2c(Br)c(Br)c(Br)c(Br)c2C(=O)O)c(Cl)c1
inactive: [8] 96 % of control | [9] 93 % of control

ClC1=C(Cl)C2(Cl)C3COCC3C1(Cl)C2(Cl)Cl (stereo not given)
inactive: dose: 50.0 mg/kg/injection, schedule: Q01DX009 (ip), vehicle: Klucel (hydroxypropylcellulose) (HPC) 105 % of control | [8] 90 % of control | dose: 100.0 mg/kg/injection, schedule: Q04DX003 (ip), vehicle: Klucel (hydroxypropylcellulose) (HPC) 97 % of control | [9] 90 % of control | dose: 200.0 mg/kg/injection, schedule: Q04DX003 (ip), vehicle: Klucel (hydroxypropylcellulose) (HPC) 95 % of control

O=C1c2ccccc2C(=O)c2c(NCCN3CCOCC3)ccc(NCCN3CCOCC3)c21
inactive: dose: 87.5 mg/kg/injection, schedule: Q01DX009 (ip), vehicle: Klucel (hydroxypropylcellulose) (HPC) 96 % of control | dose: 175.0 mg/kg/injection, schedule: Q01DX009 (ip), vehicle: Klucel (hydroxypropylcellulose) (HPC) 102 % of control | dose: 350.0 mg/kg/injection, schedule: Q01DX009 (ip), vehicle: Klucel (hydroxypropylcellulose) (HPC) 107 % of control

CCC(=O)OC1(c2ccccc2)CCN(CCC(O)c2ccccc2)CC1 (stereo not given)
inactive: dose: 3.13 mg/kg/injection, schedule: Q01DX009 (ip), vehicle: Klucel (hydroxypropylcellulose) (HPC) 98 % of control | dose: 6.25 mg/kg/injection, schedule: Q01DX009 (ip), vehicle: Klucel (hydroxypropylcellulose) (HPC) 104 % of control | dose: 12.5 mg/kg/injection, schedule: Q01DX009 (ip), vehicle: Klucel (hydroxypropylcellulose) (HPC) 95 % of control | dose: 25.0 mg/kg/injection, schedule: Q01DX009 (ip), vehicle: Klucel (hydroxypropylcellulose) (HPC) 94 % of control

O=S(=O)([O-])NC1CCCCC1.O=S(=O)([O-])NC1CCCCC1.[Hg+2].[Hg+2].[Hg+2].[O-2].[O-2]
inactive: dose: 0.5 mg/kg/injection, schedule: Q01DX009 (ip), vehicle: saline with Tween-80 100 % of control | dose: 0.5 mg/kg/injection, schedule: Q04DX003 (ip), vehicle: saline sonified 97 % of control | dose: 1.0 mg/kg/injection, schedule: Q01DX009 (ip), vehicle: saline with Tween-80 94 % of control | dose: 1.0 mg/kg/injection, schedule: Q04DX003 (ip), vehicle: saline sonified 101 % of control | dose: 2.0 mg/kg/injection, schedule: Q01DX009 (ip), vehicle: saline with Tween-80 96 % of control | dose: 2.0 mg/kg/injection, schedule: Q04DX003 (ip), vehicle: saline sonified 94 % of control | dose: 4.0 mg/kg/injection, schedule: Q01DX009 (ip), vehicle: saline with Tween-80 93 % of control

CCSC1OC(CO)C(O)C1Nc1ccc([N+](=O)[O-])cc1[N+](=O)[O-] (stereo not given)
inactive: dose: 50.0 mg/kg/injection, schedule: Q01DX001 (ip), vehicle: carboxymethylcellulose (CMC) 89 % of control | [1] 94 % of control

COC(=O)C(C#N)Cc1ccccc1Cl (stereo not given)
inactive: [3] 90 % of control | [4] 96 % of control | [5] 98 % of control
